Results taken from patent US11912650B2, “Bakuchiol derivatives, pharmaceutically acceptable salts thereof, and preparation method and use of the same” (priority 2020, dated 2024).
≈ marks a conversion by molar mass, not a printed value. Where a SMILES comes first, the peptide text is derived from it. The star is where a group is joined. X1 = C=C[C@](C)(/C=C/c1ccc(OCC(=O)*)cc1)CCC=C(C)C

What was measured:
S. aureus ATCC29213 [1] = test: Antibacterial activity assay (broth dilution MIC); assay type: cell-based; details: Staphylococcus aureus, 37° C., 24 h, compounds 38, 44-45, 58-61, 63-64 with 0.05% Tween 80
Experimental: (§1) Antibacterial activity assay. The antibacterial activities of all the compounds were determined according to a broth dilution method specified in Clinical and Laboratory Standards Institute (CLSI) guidelines. Bacterial cells were inoculated on a Mueller-Hinton agar (MHA) plate for overnight culture, and the concentration of the bacterial cells was adjusted to about 1×10^6 colony-forming units (CFU)/mL with phosphate buffered saline (PBS). First, a 1000 μg/mL stock solution (a final concentration of dimethyl sulfoxide (DMSO) was ≤2%) was prepared by dissolving a sample in DMSO/H2O. Then, the stock solution was diluted with Mueller-Hinton Broth (MHB) to an initial concentration of 100 μg/mL, and the sample solution (100 μL) was subjected to two-fold gradient dilution with MHB in a 96-well plate, to obtain 100 μg/mL to 0.78 μg/mL serial dilutions. Then, a bacterial suspension (100 μL) was added to each well of the 96-well plate and mixed with the test sample solution (100 μL). Among them, test systems for compounds 38, 44-45, 58-61 and 63-64 contained 0.05% of Tween 80. Finally, the 96-well plate was incubated at 37° C. for 24 hours. Absorbances at 600 nm at 0 and 24 h were measured. An minimum inhibitory concentration (MIC) value was defined as the lowest concentration where no visible bacterial growth occurred. All experiments were carried out in at least two duplicates, and biological repeatability could be achieved.

E. coli ATCC25922 = test: Antibacterial activity assay (broth dilution MIC); assay type: cell-based; details: Escherichia coli, 37° C., 24 h, compounds 38, 44-45, 58-61, 63-64 with 0.05% Tween 80
Experimental: as §1

Gram-positive bacteria = test: Antibacterial activity against Gram-positive bacteria (MIC summary); assay type: cell-based; details: 24 h; summary of tables 1 and 2; read-out: minimum inhibitory concentration (MIC) against Gram-positive bacteria
Experimental: as §1

Gram-negative bacteria = test: Antibacterial activity against Gram-negative bacteria (MIC summary); assay type: cell-based; details: 24 h; summary of tables 1 and 2
Experimental: as §1

MRSA NCTC10442 = test: Antibacterial activity assay (broth dilution MIC); assay type: cell-based, methicillin-resistant Staphylococcus aureus; details: Staphylococcus aureus, 37° C., 24 h, compounds 38, 44-45, 58-61, 63-64 with 0.05% Tween 80
Experimental: as §1

MRSA N315 = test: Antibacterial activity assay (broth dilution MIC); assay type: cell-based, methicillin-resistant Staphylococcus aureus; details: Staphylococcus aureus, 37° C., 24 h, compounds 38, 44-45, 58-61, 63-64 with 0.05% Tween 80
Experimental: as §1

rabbit red blood cells = test: Hemolytic activity assay; assay type: cell-based
Experimental: Hemolytic activity assay. Rabbit red blood cells were centrifuged at 2500 rpm for 3 minutes and then washed twice with PBS. Subsequently, a 8% (v/v) cell suspension was prepared by resuspending the rabbit red blood cells with PBS. A sample was first dissolved in DMSO or PBS (a final concentration of DMSO was ≤0.5%), and then diluted with PBS to prepare two-fold gradient dilutions (400 μg/mL to 3.125 μg/mL). The rabbit red blood cell suspension ([…]) was mixed with the two-fold gradient dilutions ([…]) of the sample. Then, the mixture was added to a sterile 96-well plate, incubated at 37° C. for 1 hour, and then centrifuged at 2500 rpm for 5 minutes. Among them, test systems for compounds 38, 44-45, 58-61 and 63-64 contained 0.05% of Tween 80. The supernatant (100 μL) was transferred to a new 96-well plate. Absorbance at 576 nm was measured using a Biotek multifunctional microplate reader. The positive control group was treated with a 2% Triton X-100 solution, and the negative control group was treated with PBS or 0.5% DMSO. The hemolytic activity was calculated by the following equation: % hemolytic activity=[(Abssample−Absnegative control)/(Abspositive control−Absnegative control)]×100. All experiments were carried out in at least two duplicates, and biological repeatability could be achieved.

S. aureus ATCC29213 [2] = test: Mouse model of bacterial peritonitis (abdominal infection); assay type: in vivo; details: 58 5 mg/kg intravenously every 4 hours; vancomycin 20 mg/kg IP; 5 mice per group
Experimental: CD-1 mice (6-8 weeks, with an average weight of 25 g) were used as an abdominal infection model. First, the mice were injected with S. aureus ATCC29213 (OD600≈1.0) intraperitoneally, and the mice were randomized into three groups (5 mice per group). After 1 hour of infection, one group was dosed with 58 (5 mg/kg) intravenously for treatment, once every 4 hours; and meanwhile, one group dosed with vancomycin (20 mg/kg, IP) was used as a positive control group, and the other group dosed with a 0.9% sodium chloride injection was used as a blank control group. After two days of treatment, the survival rate of the mice was investigated.

[3] = tested on: mouse fibroblasts NCTC clone 929; test: Toxicity to mammalian cells (CCK-8); assay type: cell-based; details: 100 μg/mL, 24 h
Experimental: Assay of toxicity to mammalian cells. The cytotoxicities of a compound to be tested to mouse fibroblasts NCTC clone 929, mouse corneal cells CM120 and human hepatocellular carcinoma cells Hep-G2 were evaluated by a CCK-8 method. Cells were inoculated to a 96-well plate according to the cell amount described in a CCK-8 kit (Beyotime, PRC) specification, and cultured at 37° C. with 5% CO2 for 24 h. Then, a specific concentration of the sample to be tested was added to each well. Inoculation was further performed at 37° C. in an incubator for 24 h. Finally, a CCK-8 solution having a final concentration of 10% was added to each well. Incubation was further performed in the incubator for 1.0 h before absorbance at 450 nm (OD450) of the solution was measured by a microplate reader. According to formula (2), the cytotoxicity of the sample to be tested could be obtained:
[formula] • Asample: absorbance of a well with cells, a CCK8 solution and a sample solution to be tested; • Ablank: absorbance of a well with a culture medium and a CCK8 solution but without cells; and • Ano sample: absorbance of a well with cells and a CCK8 solution but without a sample solution to be tested.

[4] = Pharmacokinetic characteristics in mice; assay type: in vivo
S. aureus ATCC29213 [5] = test: Mouse model of bacterial keratitis (cornea infection); assay type: in vivo; details: topical four times a day for three days; 0.5% compound 60, 5% vancomycin; P<0.01
Experimental: Evaluation of in vivo efficacy. The experiment for evaluating in vivo antibacterial efficacy of animals had been approved by the Laboratory Animal Center of South China Agricultural University and was carried out according to the policy of the Ministry of Health of the People's Republic of China. Female C57BL6 mice (6-8 weeks, with an average weight of 20 g) were used as a bacterial keratitis model. In order to establish an immunosuppressive mouse model, cyclophosphamide (100 mg/kg) was injected intraperitoneally to mice three times 5 days before infection. Bacterial cells (S. aureus ATCC 29213) inoculated onto a Mueller Hinton agar (MHA) plate were suspended with PBS, and the concentration of the bacterial cells was adjusted to about 5×10^7 CFU/mL for corneal infection in mice. First, the mice were anesthetized. Then, the cornea of the left eye of the mouse was scratched with a sterile needle, and 15 μL of bacterial suspension was dropped on the injured cornea. One day after infection, the mice were randomized into three groups (5 mice per group). Three compounds (0.5% 60, 5% glucose solution and 5% vancomycin) were applied topically four times a day for consecutive three days, respectively. […] Viable bacteria were counted by an MHA plate counting method. the P value was calculated using SPSS 22.0 software and P≤0.05 was considered as being statistically significant.

S. aureus ATCC29213 [6] = test: Evaluation of development tendency of drug resistance; assay type: cell-based; details: S. aureus ATCC29213, passage at 0.5×MIC
Experimental: Evaluation of development tendency of drug resistance. Initial MIC values of compound 60, norfloxacin and gatifloxacin against S. aureus ATCC29213 were obtained by the above MIC determination method. Bacterial cells in a 96-well plate with a concentration of 0.5×MIC were taken out to prepare a bacterial suspension (about 1×10^6 CFU/mL) for the next MIC value determination. After incubating the sample at 37° C. for 24 hours, the change in the MIC value of each compound was measured. This experiment was carried out consecutively for 15 days.

Row | Structure (SMILES) | MIC (S. aureus ATCC29213 [1]) | MIC (E. coli ATCC25922) | MIC (Gram-positive bacteria) | MIC (Gram-negative bacteria) | MIC (MRSA NCTC10442) | MIC (MRSA N315) | HC50 (concentration necessary to lyse 50% rabbit red blood cells) (rabbit red blood cells; rabbit red blood cells, 37° C., 1 hour) | survival rate of mice after two days of treatment (S. aureus ATCC29213 [2]) | cell survival rate, mouse fibroblasts NCTC clone 929 ([3]; CCK-8) | pharmacokinetic characteristics in mice [4] | cell survival rate, mouse fibroblasts NCTC clone 929 ([3]; mouse) | reduction of the number of bacteria in the infected mouse cornea (S. aureus ATCC29213 [5]) | change in MIC value after 15 days of continuous passage (S. aureus ATCC29213 [6]) | HC50 (concentration necessary to lyse 50% rabbit red blood cells) (rabbit red blood cells; rabbit, 1 h)
1 | C=C[C@@](C)(/C=C/c1ccc(OCCCCN(CCCN(C)C)CCCN(C)C)cc1)CCC=C(C)C [Compound 28] | 1.56 µg/mL (≈ 3.13 µM) | 3.12 µg/mL (≈ 6.28 µM) | 0.39 to 3.12 µg/mL (≈ 0.783 to 6.28 µM) | 1.56 to 3.12 µg/mL (≈ 3.13 to 6.28 µM) | 1.56 µg/mL (≈ 3.13 µM) | 1.56 µg/mL (≈ 3.13 µM) | 112.9 ± 5.0 µg/mL | – | – | – | – | – | – | –
2 | C=C[C@](C)(/C=C/c1ccc(OCC(=O)N[C@@H](CCCNC(=N)N)C(=O)N[C@@H](CCCNC(=N)N)C(=O)N[C@@H](CCCNC(=N)N)C(N)=O)cc1)CCC=C(C)C [Compound 58] | 0.39 µg/mL (≈ 0.499 µM) | 12.5 µg/mL (≈ 16 µM) | 0.39 to 3.12 µg/mL (≈ 0.499 to 4 µM) | – | 0.39 µg/mL (≈ 0.499 µM) | 0.39 µg/mL (≈ 0.499 µM) | – | 100% | 89.3±0.600 | excellent pharmacokinetic characteristics | – | – | – | –
3 | C=C[C@](C)(/C=C/c1ccc(OCC(=O)N[C@@H](CCCNC(=N)N)C(=O)N[C@@H](CCCNC(=N)N)C(=O)N[C@@H](CCCNC(=N)N)C(=O)N[C@@H](CCCNC(=N)N)C(=O)OC)cc1)CCC=C(C)C [Compound 60] (X1-RRRR-OMe) | 0.39 µg/mL (≈ 0.409 µM) | 12.5 µg/mL (≈ 13.1 µM) | 0.39 to 3.12 µg/mL (≈ 0.409 to 3.28 µM) | – | 0.78 µg/mL (≈ 0.818 µM) | 0.39 µg/mL (≈ 0.409 µM) | – | – | – | – | 93.7±0.700 | 4.48 log | does not change significantly | more than 400 μg/mL
4 | C=C[C@](C)(/C=C/c1ccc(OCC(=O)N[C@@H](CCCNC(=N)N)C(=O)N[C@@H](CCCNC(=N)N)C(=O)N[C@@H](CCCNC(=N)N)C(=O)N[C@@H](CCCNC(=N)N)C(N)=O)cc1)CCC=C(C)C [Compound 61] (X1-RRRR-NH2) | 0.78 µg/mL (≈ 0.831 µM) | 25 µg/mL (≈ 26.6 µM) | 0.39 to 3.12 µg/mL (≈ 0.416 to 3.33 µM) | – | 0.78 µg/mL (≈ 0.831 µM) | 0.39 µg/mL (≈ 0.416 µM) | – | – | – | – | – | – | – | more than 400 μg/mL
5 | C=C[C@](C)(/C=C/c1ccc(OCC(=O)N[C@@H](CCCNC(=N)N)C(=O)N[C@@H](CCCNC(=N)N)C(=O)N[C@@H](CCCNC(=N)N)C(=O)N2CCN(c3ccc(N4C[C@H](CNC(C)=O)OC4=O)cc3F)CC2)cc1)CCC=C(C)C [Compound 63] | 0.78 µg/mL (≈ 0.708 µM) | 3.12 µg/mL (≈ 2.84 µM) | 0.39 to 3.12 µg/mL (≈ 0.354 to 2.84 µM) | 1.56 to 3.12 µg/mL (≈ 1.42 to 2.84 µM) | 0.78 µg/mL (≈ 0.708 µM) | 0.78 µg/mL (≈ 0.708 µM) | – | – | – | – | – | – | – | –
6 | C=C[C@](C)(/C=C/c1ccc(OCC(=O)N[C@@H](CCCNC(=N)N)C(=O)N[C@@H](CCCNC(=N)N)C(=O)N[C@@H](CCCNC(=N)N)C(=O)N[C@@H](CCCNC(=N)N)C(=O)N[C@@H](CCCNC(=N)N)C(=O)N[C@@H](CCCNC(=N)N)C(=O)OC)cc1)CCC=C(C)C [Compound 64] | 1.56 µg/mL (≈ 1.23 µM) | 25 µg/mL (≈ 19.8 µM) | 0.39 to 3.12 µg/mL (≈ 0.308 to 2.47 µM) | – | 1.56 µg/mL (≈ 1.23 µM) | 1.56 µg/mL (≈ 1.23 µM) | – | – | – | – | – | – | – | more than 400 μg/mL
7 | CCn1cc(C(=O)O)c(=O)c2cc(F)c(N3CCNCC3)cc21 [norfloxacin, reference compound] | – | – | – | – | – | – | – | – | – | – | – | – | 16 fold | –
8 | CN[C@H](CC(C)C)C(=O)N[C@H]1C(=O)N[C@@H](CC(N)=O)C(=O)N[C@H]2C(=O)N[C@H]3C(=O)N[C@H](C(=O)N[C@H](C(=O)O)c4cc(O)cc(O)c4-c4cc3ccc4O)[C@H](O)c3ccc(c(Cl)c3)Oc3cc2cc(c3O[C@@H]2O[C@H](CO)[C@@H](O)[C@H](O)[C@H]2O[C@H]2C[C@](C)(N)[C@H](O)[C@H](C)O2)Oc2ccc(cc2Cl)[C@H]1O [vancomycin, reference compound] | – | – | – | – | – | – | – | 100% | – | – | – | 4.16 log | – | –
